{"source": "paper PMC9496346", "about": "“Controversial Role of Transferrin in the Transport of Ruthenium Anticancer Drugs” (Biomolecules, 2022)", "key": {"[1]": {"tested_on": "protein in cell culture medium", "assay": "Ru–protein binding in cell culture medium (gel filtration, GFAAS)", "assay_type": "in vitro ADME", "conditions": "medium after 24 h cell treatment; gel filtration >6 kDa; 60 μM Ru, added HSA or Tf 30 μM, ~15 μM BSA", "procedure": "An aliquot (50 µL) of cell culture medium from each well was passed through a separate Bio-Rad P6 centrifugal gel filtration column that was pre-saturated with PBS, according to manufacturer’s instructions. The eluants (50 ± 5 µL volume) contained protein-bound Ru fractions (>6 kDa molecular mass). The protein recovery, measured by Bradford assays, exceeded 95%. Another 50 µL sample of each medium was taken into separate tubes. Both the original and gel-filtered media samples were digested with 0.20 mL of 65% (v/v) HNO3 for 24 h. The digests were diluted with 0.75 mL of 0.10 M HCl, and the Ru content in the samples was determined by GFAAS. The percentage of protein binding was determined from the ratio of Ru content in the gel-filtered and original media samples [30, 31]."}, "HepG2 cells [2]": {"tested_on": "HepG2 cells", "assay": "Cellular Ru uptake by HepG2 cells (ICP-MS)", "assay_type": "cell-based, human", "conditions": "HepG2, 24 h; 60 μM Ru, added HSA or Tf 30 μM; serum-free DMEM with ~15 μM BSA; media pre-equilibrated 24 h except B1", "procedure": "(§1) Human hepatoma (HepG2) cells were originally received from the American Type Culture Collection (ATCC, Cat. No. HB-8065) and cultured as described previously. This cell line was used for Tf-dependent metal uptake studies because of the high expression levels of human TfR1 [43]. For treatments, the cells were grown to confluence in 24-well plates, using Advanced DMEM (Dulbecco’s modified Eagle’s minimal essential medium, Invitrogen Cat. No. 12491-015), supplemented with L-glutamine (2.0 mM), antibiotic-antimycotic mixture (100 mg mL^−1 penicillin, 100 mg mL^−1 steptomycin and 0.25 mg mL^−1 amphotericin B) and fetal calf serum (heat-inactivated, 2% v/v). Confluent cell layers were washed with serum-free treatment medium (DMEM, Invitrogen Cat. No. 19938-025), supplemented with glutamine, antibiotic-antimycotic mixture and 1.0 mg mL^−1 AlbuMax (Gibco Cat. No. 11020-021). […] After washing, the wells were filled with the treatment medium containing metal additions (detailed in B1–B9 of Table 1). The treatment media were sterilized by filtration through 0.2 µm membrane filters, and pre-equilibrated for 24 h at 310 K and 5% CO2 prior to the addition to cells, except for sample B1 that was used immediately after preparation. All the treatments were performed in triplicate, using random well positions to avoid experimental bias.\n(§2) After 24 h incubation with the treatment media (B1–B9 in Table 1), the medium from each well was collected for the determination of Ru–protein binding and BLI analyses, and the wells were washed twice with PBS (0.50 mL/well). […]\n(§3) The values of metal uptake were normalized using protein content in cell lysates. For protein determination, Bradford reagent (Sigma Cat. No B6916; 98 µL) was mixed with a small aliquot (2.0 µL) of each cell lysate, and the absorbance at 600 nm was measured using a Victor V3 plate reader. […] The test and calibration samples were analyzed in triplicate. […]"}, "HepG2 cells [3]": {"tested_on": "HepG2 cells", "assay": "Toxicity to HepG2 cells judged from cell morphology during treatment", "assay_type": "cell-based, human", "conditions": "HepG2, 24 h incubation, 60 μM Ru", "procedure": "as §1, with “All the treatments were performed in triplicate, using random well positions to avoid experimental bias.” left out\nCellular Fe levels were also measured to control the Tf-mediated Fe uptake. […]"}, "HepG2 cells [4]": {"tested_on": "HepG2 cells", "assay": "Cellular Fe content of HepG2 cells (ICP-MS)", "assay_type": "cell-based, human", "conditions": "HepG2, 24 h; 60 μM Ru, added HSA or Tf 30 μM; serum-free DMEM with ~15 μM BSA", "procedure": "as §1, §2, §3"}, "[5]": {"tested_on": "T1, recombinant human transferrin receptor 1 (TfR1)", "T1 construct": "extracellular domain (Cyst89-Phe760), (His)6-tagged at the N-terminus; purchased Sino Biological, Beijing, China (TfR1); Sigma (human serum, Cat. No. H4522, as source of Tf) 11020-H07H", "assay": "BLI of Tf–TfR1 binding in dilute human serum pre-treated with metal complexes", "conditions": "serum incubated with 100 μM Ru complex or 60 μM Fe(III) as citrate", "procedure": "The effects of Ru complexes on the Tf cycle were determined by BLI using previously developed protocols. The instrument used was a single-channel BLItz analyser (ForteBio, Menlo Park, CA, USA) with a tube holder (250 µL solution volume) and Ni(II)–nta coated optical probes held at 295 ± 1 K. Measurements used the Advanced Kinetics mode. […] Solutions of metal–Tf adducts (typical final Tf concentrations 150 nM or 1.0 µM) were prepared in the binding buffer (Section 2.1). The pH 7.4 binding buffer was used for Tf binding and dissociation from the probe, and the pH 5.6 buffer (Section 2.1) was used to mimic the endosomal step of the Tf cycle. Metal–Tf solutions (A1–A9 in Table 1) were diluted 100–400-fold, cell culture media were diluted 30-fold, and human serum samples were diluted 200-fold with the binding buffer immediately before the BLI measurements. All BLI data were background corrected by using data from buffer only runs with the same TfR1-loaded optical probe. Consistent BLI results were obtained in at least two independent measurements, using different probes and different batches of Tf solutions. Calculations of the Tf–TfR1 binding constants were performed using the 1:1 binding model (BLItz software, Version 1.1, Forte-Bio 2013), which can be used as a reasonable approximation of the physiological 2:2 Tf–TfR1 binding mechanism at low Tf concentrations. […]\n(b) BLI response curves for dilute human serum samples in the presence or absence of metal complexes. Intact commercial human serum (Sigma H4522) was incubated with Fe(III)-citrate (60 µM) or with Ru complexes (100 µM) for 4 h at 310 K, then diluted 200-fold (to [Tf] ~ 150 nM) with the binding buffer (20 mM HEPES, 25 mM NaHCO3, 140 mM NaCl, pH = 7.4), and analyzed with the TfR1-loaded BLI probe. Designations of the steps in Tf cycle (A–D) correspond to those in Figure 1d-f, main text. Calculated KD values (1:1 binding model, BLItz software) were as follows: 8.0 nM (serum + Fe(III) citrate); or 28 ± 2 nM (serum in the presence or absence of Ru complexes). Typical anticancer Ru complexes, NAMI-A, KP1019 and RAPTA-C, were synthesized and characterized previously in the Lay group.\n(1 picture or pasted object on this page, not shown here)"}, "[6]": {"assay": "Particle size (protein aggregation) by dynamic light scattering", "assay_type": "physicochemical", "conditions": "DLS, 298 K; 10 μM Tf in binding buffer pH 7.4", "procedure": "Protein samples (0.10 mM) were diluted 10-fold with binding buffer before the measurements. The measured parameters were the averages of 12–15 scans (scan time, 3 s). […] Analysis of Tf crystal structures that are available in the public domain from the Protein Data Bank (PDB) was performed with PyMOL software (version 2.1.1, Schrodinger LLC 2021, New York, NY, USA)."}, "[7]": {"tested_on": "T2, recombinant human transferrin receptor 1 (TfR1)", "T2 construct": "extracellular domain (Cyst89-Phe760), (His)6-tagged at the N-terminus; purchased Sino Biological, Beijing, China (TfR1)", "assay": "BLI of Tf–TfR1 binding in dilute cell culture media after uptake experiments", "conditions": "1.0 µM human Tf, 295 K; serum-free DMEM with 1.0 mg mL−1 BSA collected after HepG2 uptake experiments, diluted 30-fold; 1:1 binding model", "procedure": "The effects of Ru complexes on the Tf cycle were determined by BLI using previously developed protocols. The instrument used was a single-channel BLItz analyser (ForteBio, Menlo Park, CA, USA) with a tube holder (250 µL solution volume) and Ni(II)–nta coated optical probes held at 295 ± 1 K. Measurements used the Advanced Kinetics mode. […] Solutions of metal–Tf adducts (typical final Tf concentrations 150 nM or 1.0 µM) were prepared in the binding buffer (Section 2.1). The pH 7.4 binding buffer was used for Tf binding and dissociation from the probe, and the pH 5.6 buffer (Section 2.1) was used to mimic the endosomal step of the Tf cycle. Metal–Tf solutions (A1–A9 in Table 1) were diluted 100–400-fold, cell culture media were diluted 30-fold, and human serum samples were diluted 200-fold with the binding buffer immediately before the BLI measurements. All BLI data were background corrected by using data from buffer only runs with the same TfR1-loaded optical probe. Consistent BLI results were obtained in at least two independent measurements, using different probes and different batches of Tf solutions. Calculations of the Tf–TfR1 binding constants were performed using the 1:1 binding model (BLItz software, Version 1.1, Forte-Bio 2013), which can be used as a reasonable approximation of the physiological 2:2 Tf–TfR1 binding mechanism at low Tf concentrations.\n(a) BLI response curves for 1.0 µM of human Tf at 295 K in dilute cell culture media after Ru uptake experiments by HepG2 cells (Section 3.2 in the main text). Media (serum-free DMEM, containing 1.0 mg mL−1 BSA as a background protein, as well as KP1019 and/or Tf, as shown in the figure legend), were collected after the end of uptake experiments, then were diluted 30-fold with buffer (20 mM HEPES + 25 mM NaHCO3 + 140 mM NaCl, pH = 7.4) and applied to TfR1-loaded BLI probe. Designations of the steps in Tf cycle (A–D) correspond to those in Figure 1d-f, main text. Calculated KD values (1:1 binding model, BLItz software) were as […]"}}, "note": "Marks after values point to notes of the source that are not given here.", "data": [{"compound": "[Cl-].[Cl-].[Cl-].[Cl-].[Ru+3].c1ccc2[nH+][nH]cc2c1.c1ccc2[nH]ncc2c1.c1ccc2[nH]ncc2c1", "note": "[KP1019 fresh]", "values": [{"measurement": "% Ru–Protein (proportion of protein-bound Ru in cell culture medium)", "setting": "[1]", "result": "46 ± 4", "unit": "molar %"}, {"measurement": "Ru Uptake (cellular metal content)", "setting": "HepG2 cells [2]", "result": "6.6 ± 2.8 ^e nmol per mg protein"}, {"measurement": "Toxicity judged from cell morphology", "setting": "HepG2 cells [3]", "result": "significant cell detachment"}, {"measurement": "Fe Content (cellular metal content)", "setting": "HepG2 cells [4]", "result": "11.2 ± 6.5 ^f nmol per mg protein"}]}, {"compound": "CS(C)=O.[Cl-].[Cl-].[Cl-].[Cl-].[Ru+3].c1c[nH+]c[nH]1.c1c[nH]cn1", "note": "[NAMI-A, (ImH)[Ru^IIICl4(Im)(S-dmso)]]", "values": [{"measurement": "Effect on Tf–TfR1 binding in whole human serum", "setting": "[5]", "result": "did not have any effect"}]}, {"compound": "Cc1ccc(C(C)C)cc1.[Cl][Ru]([Cl])[PH]12CN3CN(CN(C3)C1)C2", "note": "[RAPTA-C, [Ru^II(η^6-p-cymene)Cl2(pta)]]", "values": [{"measurement": "Effect on Tf–TfR1 binding in whole human serum", "setting": "[5]", "result": "did not have any effect"}]}, {"compound": "O=C([O-])CN(CC(=O)[O-])CC(=O)[O-].O=C([O-])CN(CC(=O)[O-])CC(=O)[O-].[Ru+3]", "note": "[[Ru(nta)2]^3−, [Ru^III(nta)2]^3−]", "values": [{"measurement": "% Ru–Protein (proportion of protein-bound Ru in cell culture medium)", "setting": "[1]", "result": "2 ± 1 ^g molar %"}, {"measurement": "Ru Uptake (cellular metal content)", "setting": "HepG2 cells [2]", "result": "0.09 ± 0.03", "unit": "nmol per mg protein"}, {"measurement": "Fe Content (cellular metal content)", "setting": "HepG2 cells [4]", "result": "1.4 ± 0.4", "unit": "nmol per mg protein"}]}, {"compound": "Fe2Tf: fully Fe(III)-saturated human transferrin", "values": [{"measurement": "Mean Particle Size", "setting": "[6]", "result": "7 ± 2", "unit": "nm"}, {"measurement": "Kd", "setting": "[7]", "result": 22, "unit": "nM"}]}, {"compound": "Fe(III) citrate", "values": [{"measurement": "Effect on Tf–TfR1 binding in whole human serum", "setting": "[5]", "result": "significantly increased the binding affinity"}]}, {"compound": "Ru2Tf: apoTf + 2.0 eq. [Ru^III(nta)2]^3−; Ru(III) bound to Fe(III) sites of transferrin", "values": [{"measurement": "% Ru–Protein (proportion of protein-bound Ru in cell culture medium)", "setting": "[1]", "result": "74 ± 3 ^g molar %"}, {"measurement": "Mean Particle Size", "setting": "[6]", "result": "7 ± 1", "unit": "nm"}, {"measurement": "Fe Content (cellular metal content)", "setting": "HepG2 cells [4]", "result": "1.9 ± 0.7", "unit": "nmol per mg protein"}]}, {"compound": "RuFeTf: apoTf + 1.0 eq. [Fe^III(nta)2]^3−, then 1.0 eq. [Ru^III(nta)2]^3−; mixed Ru(III)–Fe(III)–Tf adduct", "values": [{"measurement": "Mean Particle Size", "setting": "[6]", "result": "6.5 ± 1", "unit": "nm"}]}, {"compound": "apoTf: human apo transferrin", "values": [{"measurement": "Mean Particle Size", "setting": "[6]", "result": "7 ± 1", "unit": "nm"}, {"measurement": "Kd", "setting": "[7]", "result": 32, "unit": "nM"}]}, {"compound": "monoFeTf: apoTf + 1.0 eq. [Fe^III(nta)2]^3−; mixture of FeCTf and FeNTf forms", "values": [{"measurement": "Mean Particle Size", "setting": "[6]", "result": "7 ± 1", "unit": "nm"}]}]}
